{"source": "paper PMC9061857", "about": "“A fluorogenic probe for granzyme B enables in-biopsy evaluation and screening of response to anticancer immunotherapies” (Nature Communications, 2022)", "key": {"human GzmB (hGzmB) [1]": {"biological_target": "T1, human GzmB (hGzmB) (Homo sapiens, UniProt P10144)", "T1 construct": "For active GzmB vs pro-GzmB, p < 0.0001", "T1 sequence (P10144 21-247)": "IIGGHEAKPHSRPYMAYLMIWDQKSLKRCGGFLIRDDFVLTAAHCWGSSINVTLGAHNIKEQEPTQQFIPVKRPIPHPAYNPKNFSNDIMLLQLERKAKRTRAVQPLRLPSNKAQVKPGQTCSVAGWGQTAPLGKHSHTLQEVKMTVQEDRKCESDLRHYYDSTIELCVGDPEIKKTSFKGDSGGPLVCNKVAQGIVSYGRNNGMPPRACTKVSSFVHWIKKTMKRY", "experiment": "Fluorescence assay with recombinant hGzmB (fluorogenic response, time course)", "type": "biochemical", "conditions": "for t50: probe 25 μM, hGzmB 20 nM", "method": "Fluorescence-based assays with different enzymes were performed in the appropriate buffers. Probes (25 μM) were added to enzymes (20 nM or at the indicated concentrations) in 384-well plates and their fluorescence emission was recorded at 450 nm (for AMC) or 510 nm (for BODIPY) at 37 °C using a Synergy H1 Hybrid spectrophotometer. In experiments with Ac-IEPD-CHO (50 μM), the inhibitor was preincubated for 1 h with GzmB before the addition of any probe."}, "E0771 cells": {"tested_on": "E0771 cells", "experiment": "Flow cytometry of E0771 cells in co-culture with CD8+ T cells", "type": "cell-based, mouse", "conditions": "H5 5 μM", "method": "Treatments with staurosporine (1 μM) were for 1 h. […]\nmouse CD8+ T cells and mKate-E0771 cells. b) Representative flow cytometry contour plots of E0771 cells in: left) co-cultures of E0771 cells (50,000 cells well-1) and activated […]\ncells well-1), right) E0771 alone cells treated with staurosporine (1 µM, 1 h). c) Representative flow cytometry contour plots of CD8+ T cells in: left) co-cultures of E0771 […]\n2 h) murine CD8+ T cells (200,000 cells well -1). All cultures in b) and c) were equally […]\nwith and without preincubation of the GzmB inhibitor Ac -IEPD-CHO. Data presented as […]\n633/670 nm (for AF647-Annexin V). Representative plots from independent experiments performed in triplicate. Source data in d provided as a Source Data file."}, "recombinant human GzmB": {"biological_target": "T2, recombinant human GzmB (Homo sapiens, UniProt P10144)", "T2 construct": "For active GzmB vs pro-GzmB, p < 0.0001", "T2 sequence (P10144 21-247)": "as above", "experiment": "Kinetic measurements (Michaelis-Menten) with recombinant hGzmB", "type": "biochemical", "set-up": "cleavage rate of H5 by hGzmB: unit not given here", "method": "Fluorescence-based assays with different enzymes were performed in the appropriate buffers. […] In experiments with Ac-IEPD-CHO (50 μM), the inhibitor was preincubated for 1 h with GzmB before the addition of any probe.\nSupplementary Table 4. Kinetic values determined for hexapeptides H2-H5 against\nProbe Sequence kcat kcat / KM"}, "human GzmB (hGzmB) [2]": {"biological_target": "T1, human GzmB (hGzmB)", "experiment": "HPLC conversion of fluorogenic peptides by hGzmB", "type": "biochemical", "method": "Supplementary Figure 1. Reactivity of fluorogenic substrates against human GzmB and limits of detection. a) Reaction conversion rates (by HPLC-UV detection at 350 nm) for Ac-IEPD-AMC (50 μM) in TRIS buffer (see Methods) at 37 °C containing different concentrations of hGzmB. Data presented as mean values±SEM (n=3 independent biological experiments). b) Reaction conversion rates (by HPLC-UV detection at 500 nm) for the tetrapeptide T1 (25 μM) in TRIS buffer at 37 °C containing different concentrations of hGzmB. Data presented as mean values±SEM (3 independent biological experiments).\nSource data provided as a Source Data file.\n(1 picture or pasted object on this page, not shown here)\nSupplementary Table 1. Chemical structures and reactivity of FRET-based tetrapeptides against human GzmB.\nCode Structure Linker Quencher HPLC conversion HPLC conversion […]\nSupplementary Table 2. Sequences and reactivity of FRET-based hexapeptides against […]\nCode Peptide sequence HPLC conversion\nH1 Ile-Glu-Pro-Asp-Ala-Gly 75%\nH2 Ile-Glu-Pro-Asp-Ser-Gly 80%\nH3 Ile-Glu-Pro-Asp-Ser-Leu 80%\nH4 Ile-Glu-Pro-Asp-Trp-Leu 82%\nH6 Ile-Glu-Pro-Asp-Trp-Arg 40%\nH7 Ile-Glu-Pro-Asp-Arg-Leu 60%\nH5m Ile-Glu-Phe-Asp-Ala-Leu 70%"}, "recombinant mouse GzmB": {"tested_on": "recombinant mouse GzmB", "experiment": "Reactivity against recombinant mouse GzmB (fluorescence)", "type": "biochemical", "conditions": "25 μM, 90 min, 37 °C", "method": "and H5m (both at 25 μM) after incubation for 90 min at 37 °C with recombinant mouse\npro-GzmB (100 nM) after pre-activation with mouse cathepsin C (5.5 μg mL-1) for 4 h.\nExcitation/emission wavelengths: 450 nm /510 nm. Data presented as mean values±SEM\n(3 independent experiments with 3 technical replicates). Source data provided as a […]"}, "[3]": {"conditions": "hGzmB 20 nM, 37 °C, Michaelis-Menten, n = 3"}}, "note": "Where no end group is shown, it is not given here.", "data": [{"substance": "IEPDAL [H5, FRET hexapeptide IEPDAL with BODIPY-FL fluorophore at the N-terminal end and Dabcyl quencher]", "values": [{"measurement": "specificity for hGzmB over other enzymes", "setting": "human GzmB (hGzmB) [1]; caspases, granzymes, MMPs, neutrophil elastase, pro-hGzmB", "result": "minimal response to other enzymes"}, {"measurement": "t50", "setting": "human GzmB (hGzmB) [1]; Data 1", "result": 7, "unit": "min"}, {"measurement": "t50", "setting": "human GzmB (hGzmB) [1]; Data 2", "result": 7, "unit": "min"}, {"measurement": "t50", "setting": "human GzmB (hGzmB) [1]; Data 3", "result": 7, "unit": "min"}, {"measurement": "cancer cells double-stained with H5 and Annexin V-AF647", "setting": "E0771 cells; E0771-La2-NLR cells cultured with activated T cells", "result": "over 80%"}, {"measurement": "H5 +ve E0771 cells", "setting": "E0771 cells; E0771 alone, staurosporine 1 μM, 1 h, replicate 1", "result": 2.3, "unit": "%"}, {"measurement": "H5 +ve E0771 cells", "setting": "E0771 cells; E0771 alone, staurosporine 1 μM, 1 h, replicate 2", "result": 1.69, "unit": "%"}, {"measurement": "H5 +ve E0771 cells", "setting": "E0771 cells; E0771 alone, staurosporine 1 μM, 1 h, replicate 3", "result": 2.6, "unit": "%"}, {"measurement": "H5 +ve E0771 cells", "setting": "E0771 cells; co-culture with active CD8+ T cells (24 h IL-2), replicate 1", "result": 79, "unit": "%"}, {"measurement": "H5 +ve E0771 cells", "setting": "E0771 cells; co-culture with active CD8+ T cells (24 h IL-2), replicate 2", "result": 80, "unit": "%"}, {"measurement": "H5 +ve E0771 cells", "setting": "E0771 cells; co-culture with active CD8+ T cells (24 h IL-2), replicate 3", "result": 76, "unit": "%"}, {"measurement": "H5 +ve E0771 cells", "setting": "E0771 cells; co-culture with inactive CD8+ T cells (2 h IL-2), replicate 1", "result": 17, "unit": "%"}, {"measurement": "H5 +ve E0771 cells", "setting": "E0771 cells; co-culture with inactive CD8+ T cells (2 h IL-2), replicate 2", "result": 18, "unit": "%"}, {"measurement": "H5 +ve E0771 cells", "setting": "E0771 cells; co-culture with inactive CD8+ T cells (2 h IL-2), replicate 3", "result": 27, "unit": "%"}, {"measurement": "kcat", "setting": "recombinant human GzmB; Supplementary Table 4, recombinant human GzmB", "result": 117, "unit": "s⁻¹"}, {"measurement": "Km", "setting": "recombinant human GzmB; [3]", "result": 9.6, "unit": "µM"}, {"measurement": "kcat", "setting": "recombinant human GzmB; [3]", "result": 117, "unit": "s⁻¹"}, {"measurement": "cleavage rate of H5 by hGzmB", "setting": "recombinant human GzmB; hGzmB 20 nM, [H5] 1 uM, Data 1", "result": 8.4}, {"measurement": "cleavage rate of H5 by hGzmB", "setting": "recombinant human GzmB; hGzmB 20 nM, [H5] 1 uM, Data 2", "result": 5.5}, {"measurement": "cleavage rate of H5 by hGzmB", "setting": "recombinant human GzmB; hGzmB 20 nM, [H5] 1 uM, Data 3", "result": 6.0}, {"measurement": "cleavage rate of H5 by hGzmB", "setting": "recombinant human GzmB; hGzmB 20 nM, [H5] 5 uM, Data 1", "result": 48.9}, {"measurement": "cleavage rate of H5 by hGzmB", "setting": "recombinant human GzmB; hGzmB 20 nM, [H5] 5 uM, Data 2", "result": 44.9}, {"measurement": "cleavage rate of H5 by hGzmB", "setting": "recombinant human GzmB; hGzmB 20 nM, [H5] 5 uM, Data 3", "result": 43.3}, {"measurement": "cleavage rate of H5 by hGzmB", "setting": "recombinant human GzmB; hGzmB 20 nM, [H5] 7.5 uM, Data 1", "result": 58.5}, {"measurement": "cleavage rate of H5 by hGzmB", "setting": "recombinant human GzmB; hGzmB 20 nM, [H5] 7.5 uM, Data 2", "result": 69.9}, {"measurement": "cleavage rate of H5 by hGzmB", "setting": "recombinant human GzmB; hGzmB 20 nM, [H5] 7.5 uM, Data 3", "result": 72.5}, {"measurement": "cleavage rate of H5 by hGzmB", "setting": "recombinant human GzmB; hGzmB 20 nM, [H5] 10 uM, Data 1", "result": 75.6}, {"measurement": "cleavage rate of H5 by hGzmB", "setting": "recombinant human GzmB; hGzmB 20 nM, [H5] 10 uM, Data 2", "result": 81.3}, {"measurement": "cleavage rate of H5 by hGzmB", "setting": "recombinant human GzmB; hGzmB 20 nM, [H5] 10 uM, Data 3", "result": 63.2}, {"measurement": "cleavage rate of H5 by hGzmB", "setting": "recombinant human GzmB; hGzmB 20 nM, [H5] 12.5 uM, Data 1", "result": 89.7}, {"measurement": "cleavage rate of H5 by hGzmB", "setting": "recombinant human GzmB; hGzmB 20 nM, [H5] 12.5 uM, Data 2", "result": 89.4}, {"measurement": "cleavage rate of H5 by hGzmB", "setting": "recombinant human GzmB; hGzmB 20 nM, [H5] 12.5 uM, Data 3", "result": 82.2}, {"measurement": "cleavage rate of H5 by hGzmB", "setting": "recombinant human GzmB; hGzmB 20 nM, [H5] 15 uM, Data 1", "result": 88.0}, {"measurement": "cleavage rate of H5 by hGzmB", "setting": "recombinant human GzmB; hGzmB 20 nM, [H5] 15 uM, Data 2", "result": 88.2}, {"measurement": "cleavage rate of H5 by hGzmB", "setting": "recombinant human GzmB; hGzmB 20 nM, [H5] 15 uM, Data 3", "result": 73.1}, {"measurement": "cleavage rate of H5 by hGzmB", "setting": "recombinant human GzmB; hGzmB 20 nM, [H5] 17.5 uM, Data 1", "result": 82.4}, {"measurement": "cleavage rate of H5 by hGzmB", "setting": "recombinant human GzmB; hGzmB 20 nM, [H5] 17.5 uM, Data 2", "result": 92.3}, {"measurement": "cleavage rate of H5 by hGzmB", "setting": "recombinant human GzmB; hGzmB 20 nM, [H5] 17.5 uM, Data 3", "result": 81.2}, {"measurement": "cleavage rate of H5 by hGzmB", "setting": "recombinant human GzmB; hGzmB 20 nM, [H5] 20 uM, Data 1", "result": 100.4}, {"measurement": "cleavage rate of H5 by hGzmB", "setting": "recombinant human GzmB; hGzmB 20 nM, [H5] 20 uM, Data 2", "result": 99.8}, {"measurement": "cleavage rate of H5 by hGzmB", "setting": "recombinant human GzmB; hGzmB 20 nM, [H5] 20 uM, Data 3", "result": 89.3}, {"measurement": "time to complete cleavage", "setting": "human GzmB (hGzmB) [2]; 20 nM hGzmB", "result": "less than 30 min"}, {"measurement": "HPLC conversion (20 nM hGzmB, 2 h)", "setting": "human GzmB (hGzmB) [2]; probe 25 μM (Ac-IEPD-AMC 50 μM), TRIS buffer, 37 °C, HPLC-UV", "result": 100, "unit": "%"}, {"measurement": "response to mouse GzmB", "setting": "recombinant mouse GzmB", "result": "good response"}]}]}
